Reference: PubChem BioAssay AID1259407 (Chemical Carcinogenesis Research Information System (CCRIS), 2018)
The source made the active and inactive calls. The rule behind the calls is not given here.

System: CCRIS mutagenicity, Ames/micronucleus/aberration tests
Test: CCRIS mutagenicity studies
[1] = Test System: AMES SALMONELLA TYPHIMURIUM, Strain/Indicator: TA98, Metabolic Activation: NONE, Method: STANDARD PLATE
[2] = Test System: AMES SALMONELLA TYPHIMURIUM, Strain/Indicator: TA100, Metabolic Activation: NONE, Method: STANDARD PLATE
[3] = Test System: AMES SALMONELLA TYPHIMURIUM, Strain/Indicator: TA98, Metabolic Activation: HAMSTER, LIVER, S-9, AROCLOR 1254 (10%), Method: PREINCUBATION
[4] = Test System: AMES SALMONELLA TYPHIMURIUM, Strain/Indicator: TA98, Metabolic Activation: NONE, Method: PREINCUBATION
[5] = Test System: AMES SALMONELLA TYPHIMURIUM, Strain/Indicator: TA98, Metabolic Activation: RAT, LIVER, S-9, AROCLOR 1254 (10%), Method: PREINCUBATION
[6] = Test System: AMES SALMONELLA TYPHIMURIUM, Strain/Indicator: TA98, Metabolic Activation: RAT, LIVER, S-9, AROCLOR 1254, Method: STANDARD PLATE
[7] = Test System: AMES SALMONELLA TYPHIMURIUM, Strain/Indicator: TA100, Metabolic Activation: HAMSTER, LIVER, S-9, AROCLOR 1254 (10%), Method: PREINCUBATION
[8] = Test System: AMES SALMONELLA TYPHIMURIUM, Strain/Indicator: TA100, Metabolic Activation: NONE, Method: PREINCUBATION
[9] = Test System: AMES SALMONELLA TYPHIMURIUM, Strain/Indicator: TA100, Metabolic Activation: RAT, LIVER, S-9, AROCLOR 1254 (10%), Method: PREINCUBATION
[10] = Test System: AMES SALMONELLA TYPHIMURIUM, Strain/Indicator: TA100, Metabolic Activation: RAT, LIVER, S-9, AROCLOR 1254, Method: STANDARD PLATE
[11] = Test System: AMES SALMONELLA TYPHIMURIUM, Strain/Indicator: TA1535, Metabolic Activation: HAMSTER, LIVER, S-9, AROCLOR 1254 (10%), Method: PREINCUBATION
[12] = Test System: AMES SALMONELLA TYPHIMURIUM, Strain/Indicator: TA1535, Metabolic Activation: NONE, Method: PREINCUBATION
[13] = Test System: AMES SALMONELLA TYPHIMURIUM, Strain/Indicator: TA1535, Metabolic Activation: NONE, Method: STANDARD PLATE
[14] = Test System: AMES SALMONELLA TYPHIMURIUM, Strain/Indicator: TA1535, Metabolic Activation: RAT, LIVER, S-9, AROCLOR 1254 (10%), Method: PREINCUBATION
[15] = Test System: AMES SALMONELLA TYPHIMURIUM, Strain/Indicator: TA1535, Metabolic Activation: RAT, LIVER, S-9, AROCLOR 1254, Method: STANDARD PLATE
[16] = Test System: AMES SALMONELLA TYPHIMURIUM, Strain/Indicator: TA1537, Metabolic Activation: NONE, Method: STANDARD PLATE
[17] = Test System: AMES SALMONELLA TYPHIMURIUM, Strain/Indicator: TA1537, Metabolic Activation: RAT, LIVER, S-9, AROCLOR 1254, Method: STANDARD PLATE
[18] = Test System: AMES SALMONELLA TYPHIMURIUM, Strain/Indicator: TA1538, Metabolic Activation: NONE, Method: STANDARD PLATE
[19] = Test System: AMES SALMONELLA TYPHIMURIUM, Strain/Indicator: TA1538, Metabolic Activation: RAT, LIVER, S-9, AROCLOR 1254, Method: STANDARD PLATE
[20] = Test System: MOUSE LYMPHOMA, Strain/Indicator: L5178Y (TK+/TK-), Metabolic Activation: NONE, Method: SUSPENSION/PLATE
[21] = Test System: MOUSE LYMPHOMA, Strain/Indicator: L5178Y (TK+/TK-), Metabolic Activation: RAT, LIVER, S-9, AROCLOR 1254, Method: SUSPENSION/PLATE

CC(=O)OC1Cc2ccc3ccc4cccc5cc1c2c3c45 (configuration not stated)
mutagenic call [1]: active; positive
mutagenic call [2]: active; positive

Cc1cc(-c2ccc(N=Nc3cc(S(=O)(=O)O)c4ccccc4c3N)c(C)c2)ccc1N=Nc1cc(S(=O)(=O)O)c2ccccc2c1N
mutagenic call (Test System: AMES SALMONELLA TYPHIMURIUM, Strain/Indicator: SV50, Metabolic Activation: HAMSTER, LIVER, S-9, Method: PREINCUBATION (PRIVAL METHOD)): active; positive
mutagenic call (Test System: AMES SALMONELLA TYPHIMURIUM, Strain/Indicator: SV50, Metabolic Activation: RAT, LIVER, S-9, AROCLOR 1254, Method: PREINCUBATION (PRIVAL METHOD)): active; positive
mutagenic call [3]: inactive; negative
mutagenic call (Test System: AMES SALMONELLA TYPHIMURIUM, Strain/Indicator: TA98, Metabolic Activation: HAMSTER, LIVER, S-9, AROCLOR 1254, Method: STANDARD PLATE): inactive; negative
mutagenic call (Test System: AMES SALMONELLA TYPHIMURIUM, Strain/Indicator: TA98, Metabolic Activation: HAMSTER, LIVER, S-9, Method: PREINCUBATION (PRIVAL METHOD)): active; positive
mutagenic call [4]: inactive; negative
mutagenic call [1]: inactive; negative
mutagenic call [5]: inactive; negative
mutagenic call (Test System: AMES SALMONELLA TYPHIMURIUM, Strain/Indicator: TA98, Metabolic Activation: RAT, LIVER, S-9, AROCLOR 1254, Method: PREINCUBATION (PRIVAL METHOD)): active; positive
mutagenic call [6]: inactive; negative
mutagenic call [7]: inactive; negative
mutagenic call (Test System: AMES SALMONELLA TYPHIMURIUM, Strain/Indicator: TA100, Metabolic Activation: HAMSTER, LIVER, S-9, AROCLOR 1254, Method: STANDARD PLATE): inactive; negative
mutagenic call [8]: inactive; negative
mutagenic call [2]: inactive; negative
mutagenic call [9]: inactive; negative
mutagenic call [10]: inactive; negative
mutagenic call [11]: inactive; negative
mutagenic call (Test System: AMES SALMONELLA TYPHIMURIUM, Strain/Indicator: TA1535, Metabolic Activation: HAMSTER, LIVER, S-9, AROCLOR 1254, Method: STANDARD PLATE): inactive; negative
mutagenic call [12]: inactive; negative
mutagenic call [13]: inactive; negative
mutagenic call [14]: inactive; negative
mutagenic call [15]: inactive; negative
mutagenic call (Test System: AMES SALMONELLA TYPHIMURIUM, Strain/Indicator: TA1537, Metabolic Activation: HAMSTER, LIVER, S-9, AROCLOR 1254 (10%), Method: PREINCUBATION): inactive; negative
mutagenic call (Test System: AMES SALMONELLA TYPHIMURIUM, Strain/Indicator: TA1537, Metabolic Activation: HAMSTER, LIVER, S-9, AROCLOR 1254, Method: STANDARD PLATE): inactive; negative
mutagenic call (Test System: AMES SALMONELLA TYPHIMURIUM, Strain/Indicator: TA1537, Metabolic Activation: NONE, Method: PREINCUBATION): inactive; negative
mutagenic call [16]: inactive; negative
mutagenic call (Test System: AMES SALMONELLA TYPHIMURIUM, Strain/Indicator: TA1537, Metabolic Activation: RAT, LIVER, S-9, AROCLOR 1254 (10%), Method: PREINCUBATION): inactive; negative
mutagenic call [17]: inactive; negative
mutagenic call (Test System: AMES SALMONELLA TYPHIMURIUM, Strain/Indicator: TA1538, Metabolic Activation: HAMSTER, LIVER, S-9, AROCLOR 1254, Method: STANDARD PLATE): inactive; negative
mutagenic call (Test System: AMES SALMONELLA TYPHIMURIUM, Strain/Indicator: TA1538, Metabolic Activation: HAMSTER, LIVER, S-9, Method: STANDARD PLATE): inactive; negative
mutagenic call [18]: inactive; negative
mutagenic call [19]: inactive; negative
mutagenic call [20]: inactive; negative. reevaluation of results: negative
mutagenic call [21]: inactive; negative. reevaluation of results: negative

CC1CC(C(C)C(C)(C)O)O[C@H]2C[C@@]3(C)[C@@H]4CC[C@H]5C(C)(C)C(=O)CC[C@@]56C[C@@]46CC[C@]3(C)[C@@H]12 (some centres not stated)
mutagenic call (End Point: IN VITRO MICRONUCLEUS, Test System: HUMAN PERIPHERAL LYMPHOCYTES, Metabolic Activation: NONE): inactive; negative

OC1c2ccc3c(c2C2OC2C1O)-c1cccc2cccc-3c12 (configuration not stated)
mutagenic call (Test System: AMES SALMONELLA TYPHIMURIUM, Strain/Indicator: TA97A, Metabolic Activation: NONE, Method: PREINCUBATION): active; positive
mutagenic call [4]: active; positive
mutagenic call [8]: active; positive

O=S1(=O)OC(c2cc(Br)c(O)c(Br)c2)(c2cc(Br)c(O)c(Br)c2)c2ccccc21
mutagenic call [1]: inactive; negative
mutagenic call [6]: inactive; negative
mutagenic call [2]: inactive; negative
mutagenic call [10]: inactive; negative
mutagenic call [13]: inactive; negative
mutagenic call [15]: inactive; negative
mutagenic call [16]: inactive; negative
mutagenic call [17]: inactive; negative
mutagenic call [18]: inactive; negative
mutagenic call [19]: inactive; negative
mutagenic call [20]: inactive; negative
mutagenic call [21]: inactive; negative

O=C(O)c1occ(-c2ccccc2)c1-c1ccccc1
mutagenic call [1]: inactive; negative
mutagenic call [2]: inactive; negative

CC(C)S(=O)(=O)Cl
mutagenic call [4]: inactive; negative
mutagenic call (Test System: AMES SALMONELLA TYPHIMURIUM, Strain/Indicator: TA98, Metabolic Activation: RAT, LIVER, S-9, PHENOBARBITAL, Method: PREINCUBATION): active; positive
mutagenic call [8]: active; positive
mutagenic call (Test System: AMES SALMONELLA TYPHIMURIUM, Strain/Indicator: TA100, Metabolic Activation: RAT, LIVER, S-9, PHENOBARBITAL, Method: PREINCUBATION): active; positive

N[C@@H](CCC(=O)N[C@@H](CSC(=O)NCCCl)C(=O)NCC(=O)O)C(=O)O
mutagenic call [13]: active; positive

CN(C)c1cccc(O)c1
mutagenic call (Test System: AMES SALMONELLA TYPHIMURIUM, Strain/Indicator: TA97, Metabolic Activation: HAMSTER, LIVER, S-9, AROCLOR 1254 (10%), Method: PREINCUBATION): active; positive
mutagenic call (Test System: AMES SALMONELLA TYPHIMURIUM, Strain/Indicator: TA97, Metabolic Activation: NONE, Method: PREINCUBATION): inactive; negative
mutagenic call (Test System: AMES SALMONELLA TYPHIMURIUM, Strain/Indicator: TA97, Metabolic Activation: RAT, LIVER, S-9, AROCLOR 1254 (10%), Method: PREINCUBATION): active; positive
mutagenic call [3]: active; positive
mutagenic call [4]: inactive; negative
mutagenic call [5]: active; positive
mutagenic call [7]: active; positive
mutagenic call [8]: inactive; negative
mutagenic call [9]: active; positive
mutagenic call [11]: inactive; negative
mutagenic call [12]: inactive; negative
mutagenic call [14]: inactive; negative

Clc1ccc(CN2[C@@H]3c4ccccc4-c4ccccc4[C@@H]32)cc1 (some centres not stated)
mutagenic call [2]: active; positive
